Where a name gives a salt, the structure may show the parent alone.
Legend:
L1210 leukemia [1] = experiment: IP implanted L1210 leukemia in mice (CD2F1); assay type: in vivo
L1210 leukemia [2] = experiment: S.C. implanted L1210 leukemia in mice (CD2F1); assay type: in vivo
Text: ^a Experimental formulation of mitindomide was used (NaOH + manitol).

P388 = experiment: IP P388, Days 1-9 (NCI murine test system); assay type: in vivo; conditions: IP P388, Days 1-9, dose 68.8
Procedure: Anti-tumor or anti-neoplastic activity of the novel derivatives of the present invention is determined by using the murine test system for screening anti-cancer compounds as standardized by the National Cancer Institute, Bethesda, Md., U.S.A., and described in Cancer Chemotherapy Reports, 3 (2) 1-103 (1972) which publication is incorporated herein by reference.
It is noted that although the intraperitoneal mode of administration of the novel derivatives is preferred, other modes of parenteral administration, e.g. subcutaneous, intravenous, etc., are, of course, possible and included within the purview of this invention. Similarly, although water has been used as a vehicle for the administration of the compounds of the present invention, other pharmaceutically acceptable vehicles, e.g. saline, buffers, and other aqueous media may also be used for the administration of these compounds together with adjuvants, agents or additives commonly employed in the preparation of pharmaceutical compositions. Examples of such agents, additives and adjuvants that may be employed are listed in Instruction 14, Screening Data Summary Interpretation and Outline of Clinical Screen. Drug Evaluation Branch, NCI. and are incorporated herein by reference.

Water solubility = assay type: physicochemical; conditions: water
[3] = 24.8 mg/kg IP days 1-9, Expt. 1
[4] = 24.8 mg/kg IP days 1-9, Expt. 2
[5] = 24.8 mg/kg IP days 1-9, Expt. 3
[6] = 41.3 mg/kg IP days 1-9, Expt. 1
[7] = 41.3 mg/kg IP days 1-9, Expt. 2
[8] = 41.3 mg/kg IP days 1-9, Expt. 3
[9] = 68.8 mg/kg IP days 1-9, Expt. 1
[10] = 68.8 mg/kg IP days 1-9, Expt. 2
[11] = 68.8 mg/kg IP days 1-9, Expt. 3
[12] = 114.7 mg/kg IP days 1-9, Expt. 1
[13] = 114.7 mg/kg IP days 1-9, Expt. 2
[14] = 114.7 mg/kg IP days 1-9, Expt. 3
[15] = 24.8 mg/kg ip days 1-9, Expt. 1
[16] = 24.8 mg/kg ip days 1-9, Expt. 2
[17] = 41.3 mg/kg ip days 1-9, Expt. 1
[18] = 41.3 mg/kg ip days 1-9, Expt. 2
[19] = 68.8 mg/kg ip days 1-9, Expt. 1
[20] = 68.8 mg/kg ip days 1-9, Expt. 2
[21] = 114.7 mg/kg ip days 1-9, Expt. 1

In the case of `CN1CCN(CN2C(=O)C3C4C=CC(C3C2=O)C2C3C(=O)N(CN5CCN(C)CC5)C(=O)C3C42)CC1` (centres unmarked) [Example 4, 4,8-Ethenopyrrolo[3',4':3,4]cyclobut[1,2-f]isoindole-1,3,5,7(2H,6H)-tetrone,3a,3b,4,4a,7a,8,8a,8b-octahydro-2,6-bis(N-methylpiperazinomethyl)di-hydrochloride], the ILS (L1210 leukemia [1]; [3]) is reported as 2%, the MST (L1210 leukemia [1]; [3]) is reported as 8.9 days and the “Wt. Change” value (L1210 leukemia [1]; [3]) is reported as 2.5 g. For the same compound, the ILS (L1210 leukemia [1]; [4]) was 5%, the MST (L1210 leukemia [1]; [4]) was 8.4 days and the “Wt. Change” value (L1210 leukemia [1]; [4]) was 0.8 g. For the same compound, the ILS (L1210 leukemia [1]; [5]) was 9%, the MST (L1210 leukemia [1]; [5]) was 9.0 days and the “Wt. Change” value (L1210 leukemia [1]; [5]) was 0.3 g. For the same compound, the ILS (L1210 leukemia [1]; [6]) was 24%, the MST (L1210 leukemia [1]; [6]) was 10.8 days and the “Wt. Change” value (L1210 leukemia [1]; [6]) was 1.4 g. For the same compound, the ILS (L1210 leukemia [1]; [7]) was 47%, the MST (L1210 leukemia [1]; [7]) was 11.8 days and the “Wt. Change” value (L1210 leukemia [1]; [7]) was -2.6 g. The ILS (L1210 leukemia [1]; [8]) was 34%, the MST (L1210 leukemia [1]; [8]) was 11.0 days and the “Wt. Change” value (L1210 leukemia [1]; [8]) was -1.5 g. The ILS (L1210 leukemia [1]; [9]) was 83%, the MST (L1210 leukemia [1]; [9]) was 16.0 days and the “Wt. Change” value (L1210 leukemia [1]; [9]) was -1.7 g. The ILS (L1210 leukemia [1]; [10]) was 78%, the MST (L1210 leukemia [1]; [10]) was 14.3 days and the “Wt. Change” value (L1210 leukemia [1]; [10]) was -4.1 g. The ILS (L1210 leukemia [1]; [11]) was 119%, the MST (L1210 leukemia [1]; [11]) was 18.0 days and the “Wt. Change” value (L1210 leukemia [1]; [11]) was -3.2 g. For the same compound, the ILS (L1210 leukemia [1]; [12]) was 3%, the MST (L1210 leukemia [1]; [12]) was 9.0 days and the “Wt. Change” value (L1210 leukemia [1]; [12]) was -2.6 g. For the same compound, the ILS (L1210 leukemia [1]; [13]) was 110%, the MST (L1210 leukemia [1]; [13]) was 16.8 days and the “Wt. Change” value (L1210 leukemia [1]; [13]) was -5.3 g. The ILS (L1210 leukemia [1]; [14]) was 143%, the MST (L1210 leukemia [1]; [14]) was 20.0 days and the “Wt. Change” value (L1210 leukemia [1]; [14]) was -4.6 g. The “Wt. Change” value (L1210 leukemia [1]; 191.2 mg/kg IP days 1-9, Expt. 3) was -7.1 g, the ILS (L1210 leukemia [2]; [15]) was 18% and the MST (L1210 leukemia [2]; [15]) was 9.7 days. For the same compound, the “Wt. Change” value (L1210 leukemia [2]; [15]) was -0.2 g, the ILS (L1210 leukemia [2]; [16]) was 12% and the MST (L1210 leukemia [2]; [16]) was 12.0 days. The “Wt. Change” value (L1210 leukemia [2]; [16]) was 0.3 g, the ILS (L1210 leukemia [2]; [17]) was 50% and the MST (L1210 leukemia [2]; [17]) was 12.3 days. The “Wt. Change” value (L1210 leukemia [2]; [17]) was -1.6 g, the ILS (L1210 leukemia [2]; [18]) was 21% and the MST (L1210 leukemia [2]; [18]) was 13.0 days. The “Wt. Change” value (L1210 leukemia [2]; [18]) was -1.5 g, the ILS (L1210 leukemia [2]; [19]) was 74% and the MST (L1210 leukemia [2]; [19]) was 14.3 days. For the same compound, the “Wt. Change” value (L1210 leukemia [2]; [19]) was -4.2 g, the ILS (L1210 leukemia [2]; [20]) was 58% and the MST (L1210 leukemia [2]; [20]) was 17.0 days. The “Wt. Change” value (L1210 leukemia [2]; [20]) was -2.9 g, the ILS (L1210 leukemia [2]; [21]) was 135% and the MST (L1210 leukemia [2]; [21]) was 19.3 days. For the same compound, the “Wt. Change” value (L1210 leukemia [2]; [21]) was -4.7 g, the “Wt. Change” value (L1210 leukemia [2]; 114.7 mg/kg ip days 1-9, Expt. 2) was -4.0 g and the “Wt. Change” value (L1210 leukemia [2]; 191.2 mg/kg ip days 1-9, Expt. 2) was -6.6 g. The T/C (P388) was 172 and the “H2O Sol. % (g per 100 ml H2O)” value (Water solubility) was 10 % (g per 100 ml H2O).

— patent US4670461A, “Formaldehyde derivatives of mitindomide” (priority 1984, dated 1987)
